Measurements published in patent publication US4593018A, “Oligopeptide aldehydes useful as specific inhibitors of enterokinase” (National Research Development Corp., priority 1983, dated 1986).
Residues, ends and D or L forms follow the SMILES beside them. No end group written: not given here. *: point of attachment. Boc = CC(C)(C)OC(=O)*

Key:
Type in all cases: biochemical
Human Enterokinase [1] = target: T1, Human Enterokinase (Homo sapiens, UniProt P98073); assay: Inhibition of human enterokinase, Gly-(Asp)4-Lys-2-Nap as substrate; settings: substrate Gly-(Asp)4-Lys-2-Nap; linear regression of 1/v against [I] at three substrate concentrations
T1 sequence (P98073 whole entry): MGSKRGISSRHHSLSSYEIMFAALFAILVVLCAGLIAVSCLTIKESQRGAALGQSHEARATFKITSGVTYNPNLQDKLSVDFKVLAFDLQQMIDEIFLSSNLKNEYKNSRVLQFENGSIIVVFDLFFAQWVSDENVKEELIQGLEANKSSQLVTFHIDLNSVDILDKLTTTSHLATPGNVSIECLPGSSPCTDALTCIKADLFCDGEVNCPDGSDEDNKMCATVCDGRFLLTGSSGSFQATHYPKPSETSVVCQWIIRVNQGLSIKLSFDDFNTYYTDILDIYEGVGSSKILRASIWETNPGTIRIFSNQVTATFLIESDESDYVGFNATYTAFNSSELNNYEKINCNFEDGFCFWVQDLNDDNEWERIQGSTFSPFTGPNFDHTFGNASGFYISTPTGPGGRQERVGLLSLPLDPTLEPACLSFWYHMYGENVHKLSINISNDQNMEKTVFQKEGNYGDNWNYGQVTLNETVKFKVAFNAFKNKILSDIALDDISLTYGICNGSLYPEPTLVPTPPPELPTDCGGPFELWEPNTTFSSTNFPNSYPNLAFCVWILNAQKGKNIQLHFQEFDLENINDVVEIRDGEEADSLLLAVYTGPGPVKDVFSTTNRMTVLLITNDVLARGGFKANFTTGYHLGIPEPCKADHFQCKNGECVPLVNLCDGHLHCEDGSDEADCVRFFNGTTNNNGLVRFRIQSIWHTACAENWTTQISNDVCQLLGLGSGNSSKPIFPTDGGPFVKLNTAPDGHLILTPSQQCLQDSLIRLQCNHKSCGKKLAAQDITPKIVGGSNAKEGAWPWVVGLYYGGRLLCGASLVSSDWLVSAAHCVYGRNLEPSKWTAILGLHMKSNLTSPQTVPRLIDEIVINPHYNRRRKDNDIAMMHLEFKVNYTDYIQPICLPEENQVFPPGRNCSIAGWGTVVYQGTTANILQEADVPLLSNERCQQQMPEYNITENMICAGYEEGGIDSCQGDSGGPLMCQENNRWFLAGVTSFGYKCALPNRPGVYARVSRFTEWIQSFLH
Protocol: (§1) Biological testing was carried out on the polyaspartyl argininal materials prepared as described above without further purification. […] Inhibition constants Ki for human and pig enterokinase were calculated using α-N-[^3 H] acetyl trypsinogen and Gly-(Asp)4 -Lys-2-Nap as substrates using linear regression analysis of l/v against [I] at three substrate concentrations. Inhibition of trypsin catalysed hydrolysis of both these substrates and Bz-Arg-OEt was expressed as the IC50, the concentration of inhibitor required to reduce trypsin activity by 50%. The results to activation peptides, four peptides of the invention, leupeptin and p-aminobenzamidine are set out in Tables 1 to 3 below.

Human Enterokinase [2] = target: T1, Human Enterokinase; assay: Inhibition of human enterokinase, α-N-[3H]acetyl trypsinogen as substrate; settings: substrate α-N-[3H]acetyltrypsinogen
Protocol: as §1

Pig Enterokinase = Pig Enterokinase (Sus scrofa, UniProt P98074); assay: Inhibition of pig enterokinase, α-N-[3H]acetyl trypsinogen as substrate; settings: substrate α-N-[3H]acetyltrypsinogen
Sequence of Pig Enterokinase (P98074 52-1034): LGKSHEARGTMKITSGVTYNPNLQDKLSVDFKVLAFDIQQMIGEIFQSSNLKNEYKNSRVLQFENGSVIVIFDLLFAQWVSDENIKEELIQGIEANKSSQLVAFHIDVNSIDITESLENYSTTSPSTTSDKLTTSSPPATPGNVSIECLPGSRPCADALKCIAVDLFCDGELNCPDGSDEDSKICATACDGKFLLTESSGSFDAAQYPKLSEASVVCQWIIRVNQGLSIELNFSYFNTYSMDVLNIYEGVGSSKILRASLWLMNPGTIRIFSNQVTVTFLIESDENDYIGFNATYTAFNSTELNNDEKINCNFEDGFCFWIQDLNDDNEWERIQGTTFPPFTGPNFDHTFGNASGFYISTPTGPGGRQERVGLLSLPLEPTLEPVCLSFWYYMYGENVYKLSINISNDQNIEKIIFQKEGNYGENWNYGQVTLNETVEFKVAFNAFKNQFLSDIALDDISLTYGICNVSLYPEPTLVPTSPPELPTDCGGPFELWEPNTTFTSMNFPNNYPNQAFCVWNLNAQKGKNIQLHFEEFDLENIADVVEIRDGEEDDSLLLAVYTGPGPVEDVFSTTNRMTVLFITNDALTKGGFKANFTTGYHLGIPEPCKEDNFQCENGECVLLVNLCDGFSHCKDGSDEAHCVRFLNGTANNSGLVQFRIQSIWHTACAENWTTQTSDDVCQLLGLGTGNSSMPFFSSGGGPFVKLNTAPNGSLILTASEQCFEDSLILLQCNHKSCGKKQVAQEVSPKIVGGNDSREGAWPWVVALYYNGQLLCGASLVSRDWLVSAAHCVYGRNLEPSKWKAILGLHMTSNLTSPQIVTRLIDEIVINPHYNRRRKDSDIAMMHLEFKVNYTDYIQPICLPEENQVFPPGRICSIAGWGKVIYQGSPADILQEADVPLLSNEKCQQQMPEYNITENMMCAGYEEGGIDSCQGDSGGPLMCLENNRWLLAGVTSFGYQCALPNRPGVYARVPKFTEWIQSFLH
Protocol: as §1

| Compound | Ki (Human Enterokinase [1]) [nM] | Ki (Human Enterokinase [2]) [nM] | Ki (Pig Enterokinase) [nM] |
| --- | --- | --- | --- |
| CC(=O)N[C@@H](CC(C)C)C(=O)N[C@@H](CC(C)C)C(=O)N[C@H](C=O)CCCNC(=N)N [Leupeptin, reference compound] | 1000 |  | ≥ 1000 |
| N=C(N)c1ccc(N)cc1 [p-aminobenzamidine, reference compound] |  | ≥ 50000 | ≥ 50000 |
| APFDDDDK [Ala--Pro--Phe--(Asp)4 Lys, reference compound] | 750000 |  |  |
| DDDDK [(Asp)4 Lys, reference compound] | 100000 |  |  |

Further compounds by falling Ki (Human Enterokinase [1]), results first:

| Ki (Human Enterokinase [1]) [nM] | Ki (Human Enterokinase [2]) [nM] | Ki (Pig Enterokinase) [nM] | Compound |
| --- | --- | --- | --- |
| 200 ± 50 | 10 ± 5 | 50 ± 10 | CC(C)(C)OC(=O)N[C@@H](CC(=O)O)C(=O)N[C@@H](CC(=O)O)C(=O)N[C@H](C=O)CCCNC(=N)N [Boc(Asp)2 Argal, Boc--(Asp)2 --Argininal] (Boc-Asp-Asp-Arg-aldehyde) |
| 100 | 20 ± 5 | 35 ± 5 | CC(C)(C)OC(=O)N[C@@H](CC(=O)O)C(=O)N[C@@H](CC(=O)O)C(=O)N[C@@H](CC(=O)O)C(=O)N[C@H](C=O)CCCNC(=N)N [Boc(Asp)3 Argal, Boc--(Asp)3 --Argininal] (Boc-DDDR-aldehyde) |
| 55 ± 5 | 10 ± 5 | 20 ± 10 | CC(C)(C)OC(=O)N[C@@H](CC(=O)O)C(=O)N[C@@H](CC(=O)O)C(=O)N[C@@H](CC(=O)O)C(=O)N[C@@H](CC(=O)O)C(=O)N[C@H](C=O)CCCNC(=N)N [Boc(Asp)4 Argal, Boc--(Asp)4 --Argininal] (Boc-DDDDR-aldehyde) |
